Laboratory results taken from publication PMC6374638, “Evolutionary Relationships Between the Laccase Genes of Polyporales: Orthology-Based Classification of Laccase Isozymes and Functional Insight From Trametes hirsuta” (Frontiers in Microbiology, 2019).
Read-outs that look alike come from different tables or passages of the source. Each block holds one molecule with its values, some of them ahead of it.

How the values were obtained:
rLacC [1] = tested on: T1, rLacC; test: spectrophotometric oxidation assay, […] nm, non-linear fit; type: biochemical, Trametes hirsuta; settings: 0.1 M citrate-phosphate pH 4.5, 24°C
T1 construct: gene lacC; recombinant secreted laccase, obtained previously (Savinova et al., 2017)

rLacC [2] = tested on: T1, rLacC; test: as above; type: biochemical, Trametes hirsuta; settings: 0.1 M citrate-phosphate pH 4.5, 24°C; remark: listed apart in the source
rLacC [3] = tested on: T2, rLacC; settings: read-out: KM, μM / rLacC; 0.1 M citrate-phosphate pH 4.5, 24°C
T2 construct: gene lacC

rLacC [4] = tested on: T1, rLacC; test: spectrophotometric oxidation assay, […] nm, non-linear fit; type: biochemical, Trametes hirsuta; settings: 0.1 M citrate-phosphate pH 4.5, 24°C; remark: listed apart in the source
rLacC [5] = tested on: T1, rLacC; test: as above; type: biochemical, Trametes hirsuta; settings: 0.1 M citrate-phosphate pH 4.5, 24°C; remark: listed apart in the source
LacA = biological target: T3, LacA (Trametes hirsuta, UniProt A0A0A7M685); test: as above; type: biochemical; settings: 0.1 M citrate-phosphate pH 4.5, 24°C; cited from earlier work
T3 construct: native major secreted laccase, purified previously (Savinova et al., 2017)
T3 sequence (A0A0A7M685 22-520): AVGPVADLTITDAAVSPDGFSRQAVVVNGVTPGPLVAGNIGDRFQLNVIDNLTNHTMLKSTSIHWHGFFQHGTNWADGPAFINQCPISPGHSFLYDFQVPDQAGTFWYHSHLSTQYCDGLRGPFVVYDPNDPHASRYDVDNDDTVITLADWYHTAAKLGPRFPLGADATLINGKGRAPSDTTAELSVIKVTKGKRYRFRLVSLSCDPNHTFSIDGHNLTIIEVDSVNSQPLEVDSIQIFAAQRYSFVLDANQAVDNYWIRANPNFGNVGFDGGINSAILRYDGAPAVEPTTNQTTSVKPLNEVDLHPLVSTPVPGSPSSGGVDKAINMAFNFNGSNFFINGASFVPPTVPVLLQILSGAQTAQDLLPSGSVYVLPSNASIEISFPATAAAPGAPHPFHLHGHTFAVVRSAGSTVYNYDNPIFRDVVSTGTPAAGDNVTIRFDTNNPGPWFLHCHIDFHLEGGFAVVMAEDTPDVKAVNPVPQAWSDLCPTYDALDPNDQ

SMILES: COc1cccc(OC)c1O [2,6-DMP, 2,6-dimethoxyphenol]
Km (rLacC [1]): 589 ± 75 µM

SMILES: Oc1ccccc1O [Catechol]
Km (rLacC [2]): 16300 ± 1720 µM

Further lines, with some results ahead:

Km (rLacC [3]): 173 ± 38 µM
SMILES: COc1cc(/C=C/C(=O)O)ccc1O [Ferulic acid]

Km (rLacC [4]): 15700 ± 337 µM
SMILES: COc1ccccc1O [Guaiacol]

Km (rLacC [5]): 71 ± 14 µM
SMILES: COc1cc(/C=C/C(=O)O)cc(OC)c1O [Synapic acid]
Km (LacA): 17 ± 2 µM
